PubChem BioAssay AID1259407 (Chemical Carcinogenesis Research Information System (CCRIS), 2018)
The source made the active and inactive calls. The rule behind the calls is not given here.

Tested on: CCRIS mutagenicity, Ames/micronucleus/aberration tests
Assay: CCRIS mutagenicity studies
[1] = Test System: AMES SALMONELLA TYPHIMURIUM, Strain/Indicator: TA98, Metabolic Activation: NONE, Method: PREINCUBATION
[2] = Test System: AMES SALMONELLA TYPHIMURIUM, Strain/Indicator: TA100, Metabolic Activation: NONE, Method: PREINCUBATION
[3] = Test System: AMES SALMONELLA TYPHIMURIUM, Strain/Indicator: TA1535, Metabolic Activation: NONE, Method: PREINCUBATION
[4] = Test System: AMES SALMONELLA TYPHIMURIUM, Strain/Indicator: TA1537, Metabolic Activation: NONE, Method: PREINCUBATION
[5] = Test System: AMES SALMONELLA TYPHIMURIUM, Strain/Indicator: TA100, Metabolic Activation: NONE, Method: STANDARD PLATE

CS(=O)(=O)c1ccc(O)c(N)c1 was tested, and the mutagenic call (Test System: AMES SALMONELLA TYPHIMURIUM, Strain/Indicator: TA97, Metabolic Activation: HAMSTER, LIVER, S-9, AROCLOR 1254 (10 OR 30%), Method: PREINCUBATION) was “inactive; negative”, the mutagenic call (Test System: AMES SALMONELLA TYPHIMURIUM, Strain/Indicator: TA97, Metabolic Activation: NONE, Method: PREINCUBATION) was “inactive; negative” and the mutagenic call (Test System: AMES SALMONELLA TYPHIMURIUM, Strain/Indicator: TA97, Metabolic Activation: RAT, LIVER, S-9, AROCLOR 1254 (10 OR 30%), Method: PREINCUBATION) was “inactive; negative”. The mutagenic call (Test System: AMES SALMONELLA TYPHIMURIUM, Strain/Indicator: TA98, Metabolic Activation: HAMSTER, LIVER, S-9, AROCLOR 1254 (10 OR 30%), Method: PREINCUBATION) was “inactive; negative”, the mutagenic call [1] was “inactive; negative” and the mutagenic call (Test System: AMES SALMONELLA TYPHIMURIUM, Strain/Indicator: TA98, Metabolic Activation: RAT, LIVER, S-9, AROCLOR 1254 (10 OR 30%), Method: PREINCUBATION) was “inactive; negative”. For the same compound, the mutagenic call (Test System: AMES SALMONELLA TYPHIMURIUM, Strain/Indicator: TA100, Metabolic Activation: HAMSTER, LIVER, S-9, AROCLOR 1254 (10 OR 30%), Method: PREINCUBATION) was “inactive; negative”, the mutagenic call [2] was “inactive; negative” and the mutagenic call (Test System: AMES SALMONELLA TYPHIMURIUM, Strain/Indicator: TA100, Metabolic Activation: RAT, LIVER, S-9, AROCLOR 1254 (10 OR 30%), Method: PREINCUBATION) was “inactive; negative”. For the same compound, the mutagenic call (Test System: AMES SALMONELLA TYPHIMURIUM, Strain/Indicator: TA1535, Metabolic Activation: HAMSTER, LIVER, S-9, AROCLOR 1254 (10 OR 30%), Method: PREINCUBATION) was “inactive; negative”, the mutagenic call [3] was “inactive; negative” and the mutagenic call (Test System: AMES SALMONELLA TYPHIMURIUM, Strain/Indicator: TA1535, Metabolic Activation: RAT, LIVER, S-9, AROCLOR 1254 (10 OR 30%), Method: PREINCUBATION) was “inactive; negative”. The mutagenic call (Test System: AMES SALMONELLA TYPHIMURIUM, Strain/Indicator: TA1537, Metabolic Activation: HAMSTER, LIVER, S-9, AROCLOR 1254 (10 OR 30%), Method: PREINCUBATION) was “inactive; negative”, the mutagenic call [4] was “inactive; negative” and the mutagenic call (Test System: AMES SALMONELLA TYPHIMURIUM, Strain/Indicator: TA1537, Metabolic Activation: RAT, LIVER, S-9, AROCLOR 1254 (10 OR 30%), Method: PREINCUBATION) was “inactive; negative”.
With C[n+]1c2ccccc2cc2cc(N)ccc21 the mutagenic call [3] was “inactive; negative”, the mutagenic call (Test System: AMES SALMONELLA TYPHIMURIUM, Strain/Indicator: TA1535, Metabolic Activation: RAT, LIVER, S-9, TETRACHLOROBIPHENYL, Method: PREINCUBATION) was “inactive; negative” and the mutagenic call [4] was “active; positive”. For the same compound, the mutagenic call (Test System: AMES SALMONELLA TYPHIMURIUM, Strain/Indicator: TA1537, Metabolic Activation: RAT, LIVER, S-9, TETRACHLOROBIPHENYL, Method: PREINCUBATION) was “active; positive”, the mutagenic call (Test System: AMES SALMONELLA TYPHIMURIUM, Strain/Indicator: TA1538, Metabolic Activation: NONE, Method: PREINCUBATION) was “active; positive” and the mutagenic call (Test System: AMES SALMONELLA TYPHIMURIUM, Strain/Indicator: TA1538, Metabolic Activation: RAT, LIVER, S-9, TETRACHLOROBIPHENYL, Method: PREINCUBATION) was “active; positive”. The mutagenic call (Test System: AMES SALMONELLA TYPHIMURIUM, Strain/Indicator: TA1977, Metabolic Activation: NONE, Method: PREINCUBATION) was “active; positive”, the mutagenic call (Test System: AMES SALMONELLA TYPHIMURIUM, Strain/Indicator: TA1977, Metabolic Activation: RAT, LIVER, S-9, TETRACHLOROBIPHENYL, Method: PREINCUBATION) was “active; positive” and the mutagenic call (Test System: AMES SALMONELLA TYPHIMURIUM, Strain/Indicator: TA1978, Metabolic Activation: NONE, Method: PREINCUBATION) was “active; positive”. For the same compound, the mutagenic call (Test System: AMES SALMONELLA TYPHIMURIUM, Strain/Indicator: TA1978, Metabolic Activation: RAT, LIVER, S-9, TETRACHLOROBIPHENYL, Method: PREINCUBATION) was “active; positive”.
With C=COC(=O)C=C the mutagenic call (Test System: AMES SALMONELLA TYPHIMURIUM, Strain/Indicator: TA102, Metabolic Activation: RAT, LIVER, S-9, PHENOBARBITAL AND 5,6-BENZOFLAVONE, Method: STANDARD PLATE) was “inactive; negative”, the mutagenic call (Test System: AMES SALMONELLA TYPHIMURIUM, Strain/Indicator: TA2638, Metabolic Activation: RAT, LIVER, S-9, PHENOBARBITAL AND 5,6-BENZOFLAVONE, Method: STANDARD PLATE) was “inactive; negative” and the mutagenic call (Test System: E. COLI, Strain/Indicator: WP2 (PKM101), Metabolic Activation: RAT, LIVER, S-9, PHENOBARBITAL AND 5,6-BENZOFLAVONE, Method: STANDARD PLATE) was “inactive; negative”. The mutagenic call (Test System: E. COLI, Strain/Indicator: WP2 UVRA (PKM101), Metabolic Activation: RAT, LIVER, S-9, PHENOBARBITAL AND 5,6-BENZOFLAVONE, Method: STANDARD PLATE) was “inactive; negative”.
In the case of COC(=O)c1cc2c(c3c1ccc1c(OC)cccc13)OCO2, the mutagenic call (Test System: AMES SALMONELLA TYPHIMURIUM, Strain/Indicator: TA98, Metabolic Activation: NONE, Method: STANDARD PLATE) is reported as “active; positive”, the mutagenic call [5] is reported as “active; positive” and the mutagenic call (Test System: AMES SALMONELLA TYPHIMURIUM, Strain/Indicator: TA102, Metabolic Activation: NONE, Method: STANDARD PLATE) is reported as “active; positive”. For the same compound, the mutagenic call (Test System: AMES SALMONELLA TYPHIMURIUM, Strain/Indicator: TA1537, Metabolic Activation: NONE, Method: STANDARD PLATE) was “active; positive” and the mutagenic call (Test System: AMES SALMONELLA TYPHIMURIUM, Strain/Indicator: TM677/8-AZAGUANINE, Metabolic Activation: NONE, Method: SUSPENSION/PLATE) was “inactive; negative”.
For CCCN(COC(C)=O)N=O, the mutagenic call (Test System: UDS RAT UROTHELIAL CELLS, Strain/Indicator: THY INCORP, Metabolic Activation: NONE) was “active; positive”.
With Cc1ccc(C(=O)Cl)cc1 the mutagenic call [1] was “inactive; negative”, the mutagenic call (Test System: AMES SALMONELLA TYPHIMURIUM, Strain/Indicator: TA98, Metabolic Activation: RAT LIVER S-9, PCB, Method: PREINCUBATION) was “inactive; negative” and the mutagenic call [2] was “active; positive”. The mutagenic call (Test System: AMES SALMONELLA TYPHIMURIUM, Strain/Indicator: TA100, Metabolic Activation: RAT LIVER S-9, PCB, Method: PREINCUBATION) was “active; positive”, the mutagenic call (Test System: AMES SALMONELLA TYPHIMURIUM, Strain/Indicator: TA104, Metabolic Activation: NONE, Method: PREINCUBATION) was “active; positive” and the mutagenic call (Test System: AMES SALMONELLA TYPHIMURIUM, Strain/Indicator: TA104, Metabolic Activation: RAT LIVER S-9, PCB, Method: PREINCUBATION) was “active; positive”. For the same compound, the mutagenic call (Test System: E.COLI, Strain/Indicator: WP2 UVRA, Metabolic Activation: NONE, Method: PREINCUBATION) was “active; positive” and the mutagenic call (Test System: E.COLI, Strain/Indicator: WP2 UVRA, Metabolic Activation: RAT LIVER S-9, PCB, Method: PREINCUBATION) was “active; positive”.
With Fc1ccc2ncccc2c1 the mutagenic call (End Point: In vitro chromosomal aberrations, Test System: Chinese hamster lung fibroblast cells (CHL/IU), Metabolic Activation: Rat, liver, S-9) was “active; positive, toxicity at 0.1 mg/ml. (information derived from a figure)”, the mutagenic call (End Point: In vitro micronucleus, Test System: Chinese hamster lung fibroblast cells (CHL/IU), Metabolic Activation: Rat, liver, S-9) was “active; positive, cytotoxic at 0.2 mg/ml (information derived from a figure)” and the mutagenic call (Test System: AMES SALMONELLA TYPHIMURIUM, Strain/Indicator: TA100, Metabolic Activation: RAT LIVER S-9, PHENOBARBITAL AND 5,6-BENZOFLAVONE, Method: PREINCUBATION) was “active; positive”. The mutagenic call (Test System: AMES SALMONELLA TYPHIMURIUM, Strain/Indicator: TA100, Metabolic Activation: RAT, LIVER, S-9, AROCLOR 1254, Method: PREINCUBATION) was “active; positive”, the mutagenic call (Test System: AMES SALMONELLA TYPHIMURIUM, Strain/Indicator: TA100, Metabolic Activation: RAT, LIVER, S-9, PHENOBARBITAL AND 5,6-BENZOFLAVONE, Method: PREINCUBATION) was “active; positive” and the mutagenic call (Test System: AMES SALMONELLA TYPHIMURIUM, Strain/Indicator: TA100, Metabolic Activation: RAT, LIVER, S-9, PHENOBARBITAL AND 5,6-NAPHTHOFLAVONE, Method: PREINCUBATION) was “active; positive”. The mutagenic call (Test System: UDS RODENT HEPATOCYTES, Strain/Indicator: THY INCORP (NON-S-PHASE), Metabolic Activation: NONE, Method: AUTORADIOGRAPHY) was “active; positive”.
In the case of CC(=O)OCc1ccc(N=Nc2ccc(N(C)C)cc2)cc1, the mutagenic call (Test System: AMES SALMONELLA TYPHIMURIUM, Strain/Indicator: TA98, Metabolic Activation: RAT, LIVER, S-9, POLYCHLORINATED BIPHENYLS, Method: PREINCUBATION) is reported as “active; positive” and the mutagenic call (Test System: AMES SALMONELLA TYPHIMURIUM, Strain/Indicator: TA100, Metabolic Activation: RAT, LIVER, S-9, POLYCHLORINATED BIPHENYLS, Method: PREINCUBATION) is reported as “active; positive”.
CCCCOc1cc([N+](=O)[O-])ccc1C(=O)NOC(C)=O was tested, and the mutagenic call [5] was “active; positive” and the mutagenic call (Test System: AMES SALMONELLA TYPHIMURIUM, Strain/Indicator: TA100, Metabolic Activation: RAT S9, AROCLOR, Method: STANDARD PLATE) was “active; positive”.
